# Laboratory results as given in ChEMBL document CHEMBL1201862, “PubChem BioAssay data set” (2004).
# Calls of active or inactive are those of the source.
# Legend:
# [1] = target: T1, Heat shock factor protein 1 (Mus musculus, UniProt P38532); assay: inhibition of MG132-induced HSE-luciferase signal, confirmation, cell-based, NIH3T3, luminescence, dose retest (AID 2382); type: functional;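 note: NIH3T3 fibroblasts with HSF1-driven luciferase reporter stressed by proteasome inhibitor MG132; luminescence from HSF1-driven luciferase expression after 8 hours of MG132 stress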
# T1 sequence (P38532 whole entry): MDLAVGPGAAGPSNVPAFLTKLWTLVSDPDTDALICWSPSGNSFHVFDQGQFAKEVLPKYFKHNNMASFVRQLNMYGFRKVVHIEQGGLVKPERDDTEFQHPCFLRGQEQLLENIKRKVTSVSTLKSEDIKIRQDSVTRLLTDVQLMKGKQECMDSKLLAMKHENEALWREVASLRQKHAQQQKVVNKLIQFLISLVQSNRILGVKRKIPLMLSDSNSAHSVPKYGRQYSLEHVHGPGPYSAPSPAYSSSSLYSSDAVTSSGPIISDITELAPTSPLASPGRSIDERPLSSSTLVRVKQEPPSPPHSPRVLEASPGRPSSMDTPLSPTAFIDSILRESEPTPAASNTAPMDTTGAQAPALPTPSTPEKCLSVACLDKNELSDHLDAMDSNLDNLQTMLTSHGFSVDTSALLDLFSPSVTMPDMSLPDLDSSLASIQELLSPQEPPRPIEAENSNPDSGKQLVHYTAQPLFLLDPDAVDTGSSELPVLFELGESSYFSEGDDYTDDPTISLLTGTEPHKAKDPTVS
# [2] = inhibitors of intracellular T. cruzi replication, confirmation, NIH3T3 host cells, beta-gal luminescence (AID 2044); type: functional, cell-based;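 note: intracellular parasites grown in NIH/3T3 mouse fibroblasts as host cells; luminescent beta-galactosidase reporter signal from transgenic T. cruzi replicating inside host cells; inhibitors lower the luminescence signal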
# [3] = cytotoxicity toward NIH3T3 fibroblasts, dose response, counter-screen, cell-based, ATP luminescence, mouse fibroblasts (AID 2010); type: functional;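 note: cells exposed to compound for about 90 hours before reading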
# [4] = target: T1, Heat shock factor protein 1; assay: HSF1 potentiators in luciferase reporter cells, confirmation, cell-based, NIH3T3, luminescence, dose retest (AID 435004); type: functional;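 note: stress induced by proteasome inhibitor MG132 added 30 min after compound; luciferase reporter driven by HSF1 response element in NIH3T3 cells; actives raise luminescence as potentiators of the MG132 stress response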
# [5] = inhibitors of firefly luciferase expression or activity, dose response, H4 neuroglioma cells, luminescence (AID 1990); type: functional, cell-based
# [6] = Luminescence Cell-Based Dose Response HTS to Identify Inhibitors of 5'UTR Stem-Loop Driven Prion Protein mRNA Translation in H4 Neuroglioblastoma Cells. [Related pubchem assays: 1827 (Project Summary), 1813 (Primary HTS)]; type: functional
# [7] = inhibitors of SNCA 5'UTR-driven reporter translation, confirmation, H4 neuroglioma cells, luminescence (AID 1988); type: functional, cell-based
# [8] = system: Streptococcus sp. 'group A'; assay: growth inhibition of control SK(-) GAS strain, dose response, counter-screen for streptokinase expression inhibitor project, luminescence, kanamycin, BacTiterGlo, confirmation (AID 1900); type: functional, organism-based
# [9] = system: Streptococcus; assay: Group A Streptococcus viability loss, dose response, counter-screen for streptokinase expression inhibitor project, luminescence, BacTiterGlo (AID 1915); type: functional, organism-based;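 note: potency for reduction of bacterial viability or growth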
# [10] = target: Cytochrome P450 2C19 (Homo sapiens, UniProt P33261); assay: Cytochrome panel assay with activity outcomes. Panel member name: p450-cyp2c19 Compounds with AC50 equal or less than 10 uM are considered active; type: functional; settings: read-out: AC50
# Cytochrome P450 2C19, sequence (P33261 whole entry): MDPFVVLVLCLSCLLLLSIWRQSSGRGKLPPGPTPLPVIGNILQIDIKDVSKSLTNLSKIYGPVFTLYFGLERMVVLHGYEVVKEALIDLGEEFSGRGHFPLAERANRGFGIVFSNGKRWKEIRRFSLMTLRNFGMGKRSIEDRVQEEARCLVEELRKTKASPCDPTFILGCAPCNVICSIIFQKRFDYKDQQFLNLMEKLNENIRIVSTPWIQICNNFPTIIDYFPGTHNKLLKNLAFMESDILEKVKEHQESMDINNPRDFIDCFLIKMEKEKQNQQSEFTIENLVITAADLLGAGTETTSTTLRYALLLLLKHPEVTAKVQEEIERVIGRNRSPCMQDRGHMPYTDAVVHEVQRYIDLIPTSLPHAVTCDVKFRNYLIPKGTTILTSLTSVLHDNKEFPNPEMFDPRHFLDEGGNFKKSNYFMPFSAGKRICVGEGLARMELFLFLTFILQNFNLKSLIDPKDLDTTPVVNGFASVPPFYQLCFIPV
smiles,measurement,setting,value
O=C(CN1CCN(C(c2ccccc2)c2ccccc2)CC1)N1CCOCC1,EC50,[1],> 195 µM (not active)
Cc1ccc(OCC(O)CNCc2ccc(F)cc2)cc1 (configuration not stated),EC50,[2],321 nM (active)
same,EC50,[3],> 60 µM (not active)
NC(=O)c1c(NC(=O)Cc2ccccc2)sc2c1CCN(Cc1ccccc1)C2,EC50,[4],> 260 µM (inactive)
CC(C)(CNC(=O)/C=C/c1ccc(F)cc1)CNC(=O)/C=C/c1ccc(F)cc1,EC50,[4],3.75 µM (active)
CC1CC(C)(C)N=C(S)N1CCC(=O)NCc1ccc(Cl)cc1 (configuration not stated),EC50,[5],> 120 µM (not active)
same,EC50,[6],33.7 µM (active)
same,EC50,[7],> 120 µM (not active)
CCOc1cc(/C=C2\C(=N)N3N=C(C)SC3=NC2=O)ccc1OCCOc1ccccc1,EC50,[1],> 195 µM (not active)
COc1ccccc1N(CC(=O)N/N=C(\C)c1ccccc1O)S(=O)(=O)c1ccc(C)cc1,EC50,[2],4700 nM (active)
same,EC50,[3],5.18 µM (active)
CC(C)NC(=O)N(O)C1N(Cc2ccc3c(c2)OCO3)C(=S)SC1(C)C (configuration not stated),EC50,[1],> 195 µM (not active)
CCCN(CCC)S(=O)(=O)c1ccc(C(=O)Nc2nnc(COC)o2)cc1,EC50,[8],5.99 µM (active)
same,EC50,[9],4.59 µM (active)
COC(=O)C1=C(Nc2ccc(C)cc2)C=C(C)C(C(=O)OC)C1c1cccc(OC)c1 (configuration not stated),EC50,[2],2260 nM (active)
same,EC50,[3],6.59 µM (active)
COc1ccc(CCNc2ncnc3c2c(C)c(C)n3CCO)cc1OC,EC50,[4],> 260 µM (inactive)
COc1ccc(Cl)cc1S(=O)(=O)N1CCC(C(=O)NCCc2ccccc2)CC1,EC50,[1],> 195 µM (not active)
Cc1ccc(-n2nc3c(=O)n(CCCC(=O)NCc4ccc(Cl)cc4)nc(C)c3c2C)cc1,EC50,[5],0.94 µM (active)
same,EC50,[6],> 120 µM (not active)
same,EC50,[7],19.5 µM (active)
Cc1ccc(-c2csc3ncnc(-n4nnc5ccccc54)c23)cc1C,EC50,[5],15 µM (active)
same,EC50,[6],> 120 µM (not active)
same,EC50,[7],> 60 µM (not active)
Cc1c(Cl)cccc1N=C(S)N(Cc1cccnc1)Cc1ccccc1Cl,EC50,[2],516 nM (active)
same,EC50,[3],> 60 µM (not active)
O=C1Nc2ccccc2N(O)N1c1cc(-c2ccccc2Cl)no1,EC50,[5],31.6 µM (active)
same,EC50,[6],70.3 µM (active)
same,EC50,[7],> 120 µM (not active)
N#Cc1ccccc1Cn1cc(C(=O)c2ccccc2F)c2ccccc21,EC50,[5],54.6 µM (active)
same,EC50,[6],> 120 µM (not active)
same,EC50,[7],> 120 µM (not active)
COc1cc2c(c(O)c1OC)C(=O)C(OC)CCC2 (configuration not stated),AC50,[10],6.31 µM (inconclusive)
Cc1cc(C)n(-c2cc(N3CCN(S(=O)(=O)c4ccc5ccccc5c4)CC3)ccc2[N+](=O)[O-])n1,EC50,[5],12 µM (active)
same,EC50,[6],26.7 µM (active)
same,EC50,[7],15.7 µM (active)
O=c1c(-c2ccccc2)nc2cnc(N3CCNCC3)nc2n1C1CC1,AC50,[10],39.8 µM (inconclusive)
CCOc1ccc(C2=Nn3c(nnc3-c3cccnc3)SC2)cc1,EC50,[5],16 µM (active)
same,EC50,[6],> 120 µM (not active)
same,EC50,[7],37.8 µM (active)
CCCCCn1c(SCc2cccc(C)c2)nc2c1c(=O)[nH]c(=O)n2C,EC50,[4],> 260 µM (inactive)
COc1ccc(C(=N)NOC(=O)c2ccc3c(c2)OCO3)cc1OC,EC50,[2],2500 nM (active)
same,EC50,[3],27 µM (active)
COc1ccc(C(C(=O)NC2CCCC2)N(C(=O)c2snc(-c3ccc(F)cc3)c2N)c2ccc(OC)cc2)cc1 (configuration not stated),EC50,[2],1590 nM (active)
same,EC50,[3],> 60 µM (not active)
COC(=O)c1sccc1NC(=O)c1cc(-c2ccc(C)cc2C)nc2ccccc12,AC50,[10],3.55 µM (inconclusive)
Cc1cccc2c1NC(C)CC2C (configuration not stated),EC50,[2],4830 nM (active)
same,EC50,[3],> 30 µM (not active)
C=CCC(NCc1ccco1)c1ccc(OC)c(OC)c1 (configuration not stated),EC50,[4],> 260 µM (inactive)
CC1CN(C(=O)c2ccccc2)/C(=N/c2cccc(S(=O)(=O)N(C)C)c2)S1 (configuration not stated),EC50,[5],> 120 µM (not active)
same,EC50,[6],> 120 µM (not active)
same,EC50,[7],> 120 µM (not active)
Cc1ccc(C(C)C)c(OCC(=O)Nc2ccc3c(c2)nc(CCN2CCCCC2)n3C)c1,EC50,[5],10 µM (active)
same,EC50,[6],35.8 µM (active)
same,EC50,[7],11.4 µM (active)
CCC1CCCCN1S(=O)(=O)c1ccc(C(=O)Nc2nnc(C3CC3)o2)cc1 (configuration not stated),EC50,[8],4.34 µM (active)
same,EC50,[9],7.56 µM (active)
C[C@H]1[C@H](C)CC[C@]2(C(=O)O)CC[C@]3(C)C(=CC[C@@H]4[C@@]5(C)C[C@@H](O)[C@H](O)C(C)(C)[C@@H]5CC[C@]43C)[C@H]12 [COROSOLIC ACID],EC50,[8],2.92 µM (active)
same,EC50,[9],2.79 µM (active)
O=C(NCCCN1CCOCC1)c1ccc([N+](=O)[O-])cc1[N+](=O)[O-],EC50,[2],582 nM (active)
same,EC50,[3],> 30 µM (not active)
Cc1noc(C)c1-c1cc(Nc2ccccc2)ncn1,AC50,[10],20 µM (inconclusive)
CCN(CC)S(=O)(=O)N1CCC(C(=O)N2CCC3(CC2)OCCO3)CC1,EC50,[5],> 120 µM (not active)
same,EC50,[6],17.6 µM (active)
same,EC50,[7],> 120 µM (not active)
O=C(Nc1cccc(-c2nc3ncccc3o2)c1)c1ccco1,EC50,[2],249 nM (active)
same,EC50,[3],> 60 µM (not active)
CN(CCc1ccccc1)C(=O)c1cc(COc2cccc(C(F)(F)F)c2)on1,EC50,[4],> 260 µM (inactive)
CC(=O)O[C@@]12CO[C@@H]1C[C@H](O)[C@@]1(C)C(=O)[C@H](O)C3=C(C)[C@@H](OC(=O)[C@H](O)[C@@H](NC(=O)OC(C)(C)C)c4ccccc4)C[C@](O)([C@@H](OC(=O)c4ccccc4)[C@H]21)C3(C)C,EC50,[2],< 100 nM (active)
CCOC(=O)N1CCN(C(=O)c2ccc3nc4ccc(Cl)cc4c(=O)n3c2)CC1,EC50,[5],> 120 µM (not active)
same,EC50,[6],37.5 µM (active)
same,EC50,[7],7.83 µM (active)
CC(Nc1nc(-c2ccncc2)nc2ccccc12)c1ccccc1 (configuration not stated),EC50,[2],596 nM (active)
same,EC50,[3],4.4 µM (active)
COc1ccc(NC(=O)CCc2nnc3ccc(NCc4ccc5c(c4)OCO5)nn23)cc1,EC50,[4],> 260 µM (inactive)
Cn1cc(C(=O)N/N=C/c2cc(Br)cs2)c2ccccc21,EC50,[4],42.9 µM (active)
CN1CCN(/N=C/c2cccc(Cl)c2Cl)CC1,EC50,[2],321 nM (active)
same,EC50,[3],> 60 µM (not active)
O=C(Cc1cccs1)N/N=C/c1ccco1,EC50,[8],2.88 µM (active)
same,EC50,[9],2.18 µM (active)
CN1CCC(N(C)S(=O)(=O)c2ccc(C(C)(C)C)cc2)CC1,EC50,[2],249 nM (active)
same,EC50,[3],35.5 µM (active)
N#Cc1cccc(-c2nc(NCCN3CCOCC3)c3ccccc3n2)c1,AC50,[10],15.8 µM (inconclusive)
Cc1cccc(C)c1NC(=O)COc1ccccc1C(=O)Nc1ccc(Br)cn1,EC50,[5],> 120 µM (not active)
same,EC50,[6],> 120 µM (not active)
same,EC50,[7],94.5 µM (active)
Cc1cc(NC(=O)CCC(=O)N(CC(=O)NC2CCCC2)Cc2cccs2)no1,EC50,[4],> 260 µM (inactive)
COc1cc(O)cc2c1C(=O)OC(C)CCCC(=O)CCC/C=C\2 (configuration not stated),EC50,[4],> 260 µM (inactive)
COc1ccc(SCCc2ccncc2)cc1,EC50,[2],1100 nM (active)
same,EC50,[3],> 60 µM (not active)
Cc1ccc(S(=O)(=O)NCCOc2nc(N3CCOCC3)nc(N3CCOCC3)n2)cc1,EC50,[4],> 260 µM (inactive)
O=C1NC(=O)N(c2ccccc2F)C(=O)/C1=C/NCCC1=CCCCC1,EC50,[4],> 260 µM (inactive)
